# Laboratory results: PubChem BioAssay AID342 (DTP/NCI, 2004)
# Values joined by “and” are separate entries in the source; they are usually repeats but may differ in a detail not shown here. Identical values can stand only once.
# System: Swiss mice, Sarcoma 180 sc, mean tumor weight T/C
# Assay: NCI In Vivo Anticancer Drug Screen. Data for tumor model Sarcoma 180 (subcutaneous) in Swiss mice
# Settings: endpoint: mean tumor weight, higher = larger tumour
# Outline: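 Tumor-bearing mice, transplantable tumor; readout survival or tumor size; result = T/C, treated vs vehicle control.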
compound,measurement,setting,value
CC(=O)OCC(=O)[C@@]1(O)CC[C@H]2[C@@H]3C=C(C)C4=CC(=O)CC[C@]4(C)[C@H]3[C@@H](O)C[C@@]21C,T/C,"dose: 6.1 mg/kg/injection, schedule: Q01DX007 (sc), vehicle: steriod suspending solution",67 % of control
same,T/C,"dose: 10.0 mg/kg/injection, schedule: Q#A X014 (ip), vehicle: methylcellulose (MC)",49 % of control
same,T/C,"dose: 11.8 mg/kg/injection, schedule: Q01DX007 (sc), vehicle: steriod suspending solution",43 % of control
same,T/C,"dose: 12.5 mg/kg/injection, schedule: Q01DX007 (sc), vehicle: steriod suspending solution",50 % of control
same,T/C,"dose: 15.0 mg/kg/injection, schedule: Q#A X014 (ip), vehicle: methylcellulose (MC)",41 % of control and 44 % of control
same,T/C,"dose: 17.7 mg/kg/injection, schedule: Q01DX007 (sc), vehicle: steriod suspending solution",40 % of control
same,T/C,"dose: 20.0 mg/kg/injection, schedule: Q01DX007 (sc), vehicle: steriod suspending solution",83 % of control
same,T/C,"dose: 22.5 mg/kg/injection, schedule: Q#A X014 (ip), vehicle: methylcellulose (MC)",60 % of control and 64 % of control
same,T/C,"dose: 25.0 mg/kg/injection, schedule: Q01DX007 (sc), vehicle: steriod suspending solution",39 % of control
same,T/C,"dose: 26.6 mg/kg/injection, schedule: Q01DX007 (sc), vehicle: steriod suspending solution",52 % of control
same,T/C,"dose: 30.0 mg/kg/injection, schedule: Q01DX007 (sc), vehicle: steriod suspending solution",55 % of control
same,T/C,"dose: 33.75 mg/kg/injection, schedule: Q#A X014 (ip), vehicle: methylcellulose (MC)",31 % of control and 54 % of control
same,T/C,"dose: 40.0 mg/kg/injection, schedule: Q01DX007 (sc), vehicle: steriod suspending solution",41 % of control
same,T/C,"dose: 45.0 mg/kg/injection, schedule: Q01DX007 (sc), vehicle: steriod suspending solution",58 % of control and 64 % of control
same,T/C,"dose: 53.0 mg/kg/injection, schedule: Q01DX007 (sc), vehicle: steriod suspending solution",71 % of control
same,T/C,"dose: 60.0 mg/kg/injection, schedule: Q01DX007 (sc), vehicle: steriod suspending solution",36 % of control
same,T/C,"dose: 67.5 mg/kg/injection, schedule: Q01DX007 (sc), vehicle: steriod suspending solution",60 % of control
same,T/C,"dose: 80.0 mg/kg/injection, schedule: Q01DX007 (sc), vehicle: steriod suspending solution",53 % of control
same,T/C,"dose: 90.0 mg/kg/injection, schedule: Q01DX007 (sc), vehicle: steriod suspending solution",31 % of control
same,T/C,"dose: 100.0 mg/kg/injection, schedule: Q01DX007 (sc), vehicle: steriod suspending solution",26 % of control
same,T/C,"dose: 120.0 mg/kg/injection, schedule: Q01DX007 (sc), vehicle: steriod suspending solution",51 % of control
same,T/C,"dose: 135.0 mg/kg/injection, schedule: Q01DX007 (sc), vehicle: steriod suspending solution",27 % of control
same,T/C,"dose: 150.0 mg/kg/injection, schedule: Q01DX007 (sc), vehicle: steriod suspending solution",54 % of control
same,T/C,"dose: 180.0 mg/kg/injection, schedule: Q01DX007 (sc), vehicle: steriod suspending solution",32 % of control
same,T/C,"dose: 202.5 mg/kg/injection, schedule: Q01DX007 (sc), vehicle: steriod suspending solution",24 % of control
CCCCOP(=S)(N1CC1)N1CC1,T/C,"dose: 0.25 mg/kg/injection, schedule: Q01DX007 (ip), vehicle: saline",97 % of control
same,T/C,"dose: 0.5 mg/kg/injection, schedule: Q01DX007 (ip), vehicle: saline",73 % of control
same,T/C,"dose: 0.75 mg/kg/injection, schedule: Q01DX007 (ip), vehicle: other",124 % of control
same,T/C,"dose: 0.75 mg/kg/injection, schedule: Q01DX007 (ip), vehicle: saline",86 % of control
same,T/C,"dose: 1.0 mg/kg/injection, schedule: Q01DX007 (ip), vehicle: saline",70 % of control
same,T/C,"dose: 1.5 mg/kg/injection, schedule: Q01DX007 (ip), vehicle: other",79 % of control
same,T/C,"dose: 1.5 mg/kg/injection, schedule: Q01DX007 (ip), vehicle: saline",70 % of control
same,T/C,"dose: 1.8 mg/kg/injection, schedule: Q01DX007 (ip), vehicle: saline",33 % of control
same,T/C,"dose: 2.8 mg/kg/injection, schedule: Q01DX007 (ip), vehicle: saline",9 % of control
same,T/C,"dose: 3.0 mg/kg/injection, schedule: Q01DX007 (ip), vehicle: other",87 % of control
same,T/C,"dose: 3.0 mg/kg/injection, schedule: Q01DX007 (ip), vehicle: saline",57 % of control
same,T/C,"dose: 4.3 mg/kg/injection, schedule: Q01DX007 (ip), vehicle: saline",11 % of control
same,T/C,"dose: 6.0 mg/kg/injection, schedule: Q01DX007 (ip), vehicle: other",91 % of control
same,T/C,"dose: 6.0 mg/kg/injection, schedule: Q01DX007 (ip), vehicle: saline",31 % of control
same,T/C,"dose: 6.6 mg/kg/injection, schedule: Q01DX007 (ip), vehicle: saline",3 % of control
same,T/C,"dose: 7.5 mg/kg/injection, schedule: Q#A X014 (ip), vehicle: saline",28 % of control
same,T/C,"dose: 10.0 mg/kg/injection, schedule: Q01DX007 (ip), vehicle: other",103 % of control
same,T/C,"dose: 10.0 mg/kg/injection, schedule: Q01DX007 (ip), vehicle: saline",17 % of control
same,T/C,"dose: 10.0 mg/kg/injection, schedule: Q## X000 (ip), vehicle: saline",17 % of control
same,T/C,"dose: 15.0 mg/kg/injection, schedule: Q## X000 (ip), vehicle: saline",2 % of control
same,T/C,"dose: 22.5 mg/kg/injection, schedule: Q## X000 (ip), vehicle: saline",3 % of control
NC(Cc1ccc(N(CCCl)CCCl)cc1)C(=O)O (configuration not stated),T/C,"dose: 0.45 mg/kg/injection, schedule: Q#A X014 (ip), vehicle: carboxymethylcellulose (CMC)",68 % of control
same,T/C,"dose: 0.62 mg/kg/injection, schedule: Q#A X014 (ip), vehicle: carboxymethylcellulose (CMC)",83 % of control
same,T/C,"dose: 0.81 mg/kg/injection, schedule: Q01DX007 (ip), vehicle: carboxymethylcellulose (CMC)",81 % of control
same,T/C,"dose: 0.9 mg/kg/injection, schedule: Q#A X014 (ip), vehicle: carboxymethylcellulose (CMC)",74 % of control
same,T/C,"dose: 1.0 mg/kg/injection, schedule: Q#A X014 (ip), vehicle: methylcellulose (MC)",80 % of control
same,T/C,"dose: 1.08 mg/kg/injection, schedule: Q#A X014 (ip), vehicle: carboxymethylcellulose (CMC)",76 % of control
same,T/C,"dose: 1.25 mg/kg/injection, schedule: Q#A X014 (ip), vehicle: carboxymethylcellulose (CMC)",78 % of control
same,T/C,"dose: 1.62 mg/kg/injection, schedule: Q01DX007 (ip), vehicle: carboxymethylcellulose (CMC)",78 % of control
same,T/C,"dose: 1.62 mg/kg/injection, schedule: Q#A X014 (ip), vehicle: carboxymethylcellulose (CMC)",78 % of control
same,T/C,"dose: 1.8 mg/kg/injection, schedule: Q#A X014 (ip), vehicle: carboxymethylcellulose (CMC)",60 % of control
same,T/C,"dose: 2.0 mg/kg/injection, schedule: Q#A X014 (ip), vehicle: methylcellulose (MC)",59 % of control
same,T/C,"dose: 2.16 mg/kg/injection, schedule: Q#A X014 (ip), vehicle: carboxymethylcellulose (CMC)",51 % of control
same,T/C,"dose: 2.5 mg/kg/injection, schedule: Q#A X014 (ip), vehicle: carboxymethylcellulose (CMC)",47 % of control
same,T/C,"dose: 2.88 mg/kg/injection, schedule: Q01DX007 (ip), vehicle: carboxymethylcellulose (CMC)",95 % of control
same,T/C,"dose: 3.25 mg/kg/injection, schedule: Q01DX007 (ip), vehicle: carboxymethylcellulose (CMC)",32 % of control
same,T/C,"dose: 3.25 mg/kg/injection, schedule: Q#A X014 (ip), vehicle: carboxymethylcellulose (CMC)",34 % of control
same,T/C,"dose: 3.6 mg/kg/injection, schedule: Q01DX007 (ip), vehicle: carboxymethylcellulose (CMC)",62 % of control
same,T/C,"dose: 3.6 mg/kg/injection, schedule: Q#A X014 (ip), vehicle: carboxymethylcellulose (CMC)",31 % of control
same,T/C,"dose: 4.0 mg/kg/injection, schedule: Q#A X014 (ip), vehicle: methylcellulose (MC)",47 % of control
same,T/C,"dose: 4.8 mg/kg/injection, schedule: Q01DX007 (ip), vehicle: carboxymethylcellulose (CMC)",42 % of control
same,T/C,"dose: 5.0 mg/kg/injection, schedule: Q#A X014 (ip), vehicle: carboxymethylcellulose (CMC)",7 % of control
same,T/C,"dose: 7.2 mg/kg/injection, schedule: Q01DX007 (ip), vehicle: carboxymethylcellulose (CMC)",20 % of control
same,T/C,"dose: 8.0 mg/kg/injection, schedule: Q#A X014 (ip), vehicle: methylcellulose (MC)",14 % of control
CC(=O)Nc1c(Cl)cc2c(c1Cl)Cc1cc([N+](=O)[O-])ccc1-2,T/C,"dose: 222.0 mg/kg/injection, schedule: Q01DX007 (ip), vehicle: saline",59 % of control
[N-]=[N+]=CC(=O)NCC(=O)NN,T/C,"dose: 400.0 mg/kg/injection, schedule: Q01DX007 (ip), vehicle: water",45 % of control
same,T/C,"dose: 450.0 mg/kg/injection, schedule: Q01DX007 (ip), vehicle: other",43 % of control
same,T/C,"dose: 500.0 mg/kg/injection, schedule: Q01DX007 (ip), vehicle: other",50 % of control
same,T/C,"dose: 600.0 mg/kg/injection, schedule: Q01DX007 (ip), vehicle: water",34 % of control
Cc1cc(N)c2cc(NC(=O)/C=C\c3ccccc3Cl)ccc2n1,T/C,"dose: 11.0 mg/kg/injection, schedule: Q01DX007 (ip), vehicle: carboxymethylcellulose (CMC)",89 % of control
same,T/C,"dose: 17.0 mg/kg/injection, schedule: Q01DX007 (ip), vehicle: carboxymethylcellulose (CMC)",77 % of control
same,T/C,"dose: 25.0 mg/kg/injection, schedule: Q01DX007 (ip), vehicle: carboxymethylcellulose (CMC)",46 % of control
